US6919457B2, “3-(imidazolyl)-2-aminopropanoic acids” (Pfizer, Inc., priority 2002, dated 2005)

Assays:
[1] = molecular target: T1, TAFIa (Homo sapiens, UniProt Q96IY4); assay: Assay for TAFIa inhibition (Ki determination, FAAL substrate hydrolysis); type: biochemical; details: calculated from IC50 using the Cheng-Prusoff equation, activated human TAFI, 24° C.
T1 sequence (Q96IY4 115-423): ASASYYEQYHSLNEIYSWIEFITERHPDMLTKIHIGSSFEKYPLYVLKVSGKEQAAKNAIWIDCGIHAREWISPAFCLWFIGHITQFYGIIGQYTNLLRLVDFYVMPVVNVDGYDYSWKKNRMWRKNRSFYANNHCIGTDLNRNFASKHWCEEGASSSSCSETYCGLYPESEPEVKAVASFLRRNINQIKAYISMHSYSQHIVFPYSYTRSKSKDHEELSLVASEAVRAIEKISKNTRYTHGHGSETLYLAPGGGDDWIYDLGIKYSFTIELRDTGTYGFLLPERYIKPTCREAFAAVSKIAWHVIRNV
Method: The compounds of the present invention may be tested using the following assay, which is based on that disclosed in Boffa et al., J. Biol. Chem. 1998, 273, 2127. The compounds are incubated with activated TAFI and a standard substrate for TAFIa, the rate of hydrolysis of the substrate is determined and compared to the rate of hydrolysis in the absence of the compounds, and the amount of inhibition expressed in terms of Ki.
Human TAFI (recombinant or purified) was activated by incubating 20 μl of stock solution (360 μg/ml) with 10 μl of human thrombin (10 NIH units/ml), 10 μl of rabbit thrombomodulin (30 μg/ml), 6 μl calcium chloride (50 mM) in 50 μL of 20 mM HEPES (N-[2-hydroxyethyl]piperazine-N-[2-ethanesulfonic acid]) buffer containing 150 mM sodium chloride and 0.01% TWEEN 80 (polyoxyethylene-sorbitan monooleate) pH 7.6 for 20 minutes at 22° C. At the end of the incubation period, thrombin was neutralised by the addition of 10 μL of PPACK (D-Phe-Pro-Arg chloromethyl ketone) (100 nM). The resulting TAFIa solution was stored on ice for 5 minutes and finally diluted with 175 μl of HEPES buffer.
ii) Ki Determination (TAFIa)
(§1) A number of different dilutions of the test compound in water were made up. To 20 μl of each dilution was added 150 μl of HEPES buffer and 10 μl of TAFIa, which was then pre-incubated for 15 minutes at 24° C. To each dilution was then added 20 μl furylacryloyl-alanyl-lysine (FAAL) at a standard concentration. Substrate turnover was measured by reading the absorbance of the reaction mixture at 330 nm every 15 seconds for 30 minutes. The reaction was performed at 24° C. and samples were mixed for 3 seconds prior to each absorbance reading.
(§2) A graph of % inhibition against test compound concentration was then plotted; from which was calculated the IC50 value. The Ki value was then calculated using the Cheng-Prusoff equation.
Two controls, positive and negative, were used to check the accuracy of the results in each case. For the first control, the assay was performed as above, but with 20 μl of water rather than a dilution of the test compound. […] For the second control, the assay was performed as above, but with an effective amount of a non specific carboxypeptidase inhibitor rather than a dilution of the test compound.

[2] = molecular target: T2, human CPN (Homo sapiens, UniProt P15169); assay: CPN Ki determination (TAFIa assay with human CPN substituted for TAFIa); type: biochemical; details: for Ki: human CPN substituted for TAFIa, calculated Ki; for Selectivity: selectivity for TAFIa over CPN, comparing Ki for CPN with Ki for TAFIa
T2 sequence (P15169 21-458): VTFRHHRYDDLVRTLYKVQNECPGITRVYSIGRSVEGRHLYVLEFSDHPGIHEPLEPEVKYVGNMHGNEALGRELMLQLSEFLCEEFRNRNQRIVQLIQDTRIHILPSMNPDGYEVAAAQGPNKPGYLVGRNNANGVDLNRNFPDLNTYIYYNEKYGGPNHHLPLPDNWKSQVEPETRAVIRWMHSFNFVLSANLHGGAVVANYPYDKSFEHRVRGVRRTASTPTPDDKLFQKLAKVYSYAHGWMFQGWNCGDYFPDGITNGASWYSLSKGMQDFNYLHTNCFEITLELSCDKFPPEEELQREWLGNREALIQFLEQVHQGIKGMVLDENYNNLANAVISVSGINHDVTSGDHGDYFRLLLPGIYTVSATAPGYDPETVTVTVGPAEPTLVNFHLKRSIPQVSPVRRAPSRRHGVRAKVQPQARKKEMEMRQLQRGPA
T2 sequence (P22792 22-545 partner): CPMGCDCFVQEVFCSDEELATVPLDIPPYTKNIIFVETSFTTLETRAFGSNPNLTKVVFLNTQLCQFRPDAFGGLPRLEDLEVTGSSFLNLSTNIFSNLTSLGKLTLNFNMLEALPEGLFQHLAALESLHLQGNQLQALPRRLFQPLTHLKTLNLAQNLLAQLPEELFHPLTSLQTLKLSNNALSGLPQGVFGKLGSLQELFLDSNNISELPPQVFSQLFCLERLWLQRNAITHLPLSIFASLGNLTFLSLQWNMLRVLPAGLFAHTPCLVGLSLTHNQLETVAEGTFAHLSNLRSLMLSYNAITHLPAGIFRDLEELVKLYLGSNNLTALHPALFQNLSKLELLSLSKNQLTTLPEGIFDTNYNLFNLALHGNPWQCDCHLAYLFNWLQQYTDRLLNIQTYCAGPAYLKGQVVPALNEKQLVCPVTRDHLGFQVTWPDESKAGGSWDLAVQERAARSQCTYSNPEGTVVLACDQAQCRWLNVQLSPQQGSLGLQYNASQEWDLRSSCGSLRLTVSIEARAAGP
Method: as §1, §2
The selectivity of the compounds of the present invention for TAFIa over CPN was determined by calculating the Ki of the compounds of the present invention for CPN, then comparing it to the Ki for TAFIa. The Ki was calculated using the assay for the calculation of TAFIa Ki, but substituting 10 μl of human CPN for 10 μl of TAFIa.

| Structure (SMILES) | Ki [1] [nM] | Ki [2] [nM] | Selectivity [2] |
| --- | --- | --- | --- |
| N[C@H]1CCN([C@@H](Cc2cn(CCC3CCCCC3)cn2)C(=O)O)C1 [Example 6, (+)-(2S)-2-[(3S)-3-Aminopyrrolidinyl]-3-[1-(2-cyclohexylethyl)-1H-imidazol-4-yl]propanoic Acid] | 7 | > 10000 | >1400 |
| N[C@H]1CCN([C@@H](Cc2cn(CCc3ccccc3)cn2)C(=O)O)C1 [Example 8, (+)-(2S)-2-[(3S)-3-Aminopyrrolidinyl]-3-[1-(2-phenylethyl)-1H-imidazol-4-yl]propanoic Acid] | 10 |  |  |
| N[C@H]1CCN([C@@H](Cc2cn(-c3ccccc3)cn2)C(=O)O)C1 [Example 9, (+)-(2S)-2-[(3S)-3-Aminopyrrolidinyl]-3-[1-phenyl-1H-imidazol-4-yl]propanoic Acid] | 8 |  |  |

Further lines, results first:

| Ki [1] [nM] | Ki [2] [nM] | Selectivity [2] | Structure (SMILES) |
| --- | --- | --- | --- |
| 60 |  |  | N[C@H]1CCN([C@@H](Cc2c[nH]cn2)C(=O)O)C1 [Example 2, (+)-(2S)-2-[(3S)-3-Aminopyrrolidinyl]-3-(1H-imidazol-4-yl)propanoic Acid] |
| 22 | > 10000 | >450 | CCCn1cnc(C[C@@H](C(=O)O)N2CC[C@H](N)C2)c1 [Example 4, (+)-(2S)-2-[(3S)-3-Aminopyrrolidinyl]-3-(1-propyl-1H-imidazol-4-yl)propanoic Acid] |
